Laboratory results published in ChEMBL document CHEMBL4028808, “Design and synthesis of selective CDK8/19 dual inhibitors: Discovery of 4,5-dihydrothieno[3',4':3,4]benzo[1,2-d]isothiazole derivatives” (Bioorg Med Chem, 2017).
Activity calls are given as the source filed them. The rule behind the calls is not given here.

Columns and labels:
SET-2 = test: Antitumor activity against human SET2 cells implanted in […] assessed as reduction in tumor volume administered intraperitoneally relative to control; type: functional; set-up: scale not given: the % may be the effect or the level left
[1] = molecular target: T1, Cyclin-dependent kinase 8 (Homo sapiens, UniProt P49336); test: Inhibition of CDK8 in human A549 cells by mass spectrometric method; type: cell-based
T1 sequence (P49336 whole entry): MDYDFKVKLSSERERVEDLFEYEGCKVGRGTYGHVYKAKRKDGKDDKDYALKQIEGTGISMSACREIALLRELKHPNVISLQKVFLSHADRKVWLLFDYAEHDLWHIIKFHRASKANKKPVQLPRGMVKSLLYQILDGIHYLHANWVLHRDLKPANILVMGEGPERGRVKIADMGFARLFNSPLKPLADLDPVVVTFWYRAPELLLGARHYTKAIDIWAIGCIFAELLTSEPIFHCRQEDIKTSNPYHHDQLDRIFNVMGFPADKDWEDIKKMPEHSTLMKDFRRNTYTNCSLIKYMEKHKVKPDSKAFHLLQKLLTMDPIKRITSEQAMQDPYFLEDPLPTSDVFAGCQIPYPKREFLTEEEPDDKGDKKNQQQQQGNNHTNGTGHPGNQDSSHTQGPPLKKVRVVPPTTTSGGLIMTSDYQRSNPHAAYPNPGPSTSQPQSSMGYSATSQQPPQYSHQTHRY

[2] = molecular target: T1, Cyclin-dependent kinase 8; test: Inhibition of CDK8 (unknown origin) at 1 uM by ADP-Glo assay
[3] = Intrinsic clearance in human liver microsomes at 1 umol/l after 15 to 30 mins in presence of NADPH by LC-MS/MS analysis; type: ADME, microsome; details: read-out: CLH
[4] = molecular target: CDK2/Cyclin A2 (Homo sapiens) (UniProt P24941+P20248); test: Inhibition of CDK2/cyclin A (unknown origin) at 1 uM using histone H1 as substrate preincubated for 5 mins followed by substrate addition measured after 20 mins in presence of [gamma33P]ATP by scintillation counter method relative to control; type: protein-complex assay
[5] = molecular target: T2, Cyclin-dependent kinase 9 (Homo sapiens, UniProt P50750); test: Inhibition of CDK9 (unknown origin) at 1 uM relative to control
T2 sequence (P50750 whole entry): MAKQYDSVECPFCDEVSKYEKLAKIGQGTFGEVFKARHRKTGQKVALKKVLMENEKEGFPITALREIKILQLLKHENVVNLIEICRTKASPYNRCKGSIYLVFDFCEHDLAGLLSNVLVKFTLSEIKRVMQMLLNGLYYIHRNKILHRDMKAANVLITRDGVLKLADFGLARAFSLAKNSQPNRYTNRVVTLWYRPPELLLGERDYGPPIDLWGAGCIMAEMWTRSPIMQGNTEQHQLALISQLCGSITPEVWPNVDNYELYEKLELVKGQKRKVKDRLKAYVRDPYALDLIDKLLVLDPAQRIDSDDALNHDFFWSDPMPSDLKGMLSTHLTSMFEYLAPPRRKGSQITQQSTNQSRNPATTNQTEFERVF

[6] = molecular target: Glycogen synthase kinase-3 beta (Homo sapiens) (UniProt P49841); test: Inhibition of GSK3beta (unknown origin) at 1 uM using GSK3 substrate peptide preincubated for 5 mins followed by substrate addition measured after 30 mins in presence of [gamma33P]ATP by scintillation counter method relative to control
Glycogen synthase kinase-3 beta (Homo sapiens), sequence (P49841 whole entry, looked up): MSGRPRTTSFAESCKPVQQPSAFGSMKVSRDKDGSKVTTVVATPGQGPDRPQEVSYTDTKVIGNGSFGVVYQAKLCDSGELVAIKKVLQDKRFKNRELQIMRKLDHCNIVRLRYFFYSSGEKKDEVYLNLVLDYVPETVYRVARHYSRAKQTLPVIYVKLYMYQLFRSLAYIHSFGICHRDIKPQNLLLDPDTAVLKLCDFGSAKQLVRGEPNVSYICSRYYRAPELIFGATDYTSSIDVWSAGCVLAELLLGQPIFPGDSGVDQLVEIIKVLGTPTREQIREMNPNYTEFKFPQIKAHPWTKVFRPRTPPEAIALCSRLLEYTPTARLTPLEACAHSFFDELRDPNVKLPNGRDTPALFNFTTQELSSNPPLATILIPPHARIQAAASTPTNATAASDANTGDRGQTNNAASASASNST

[7] = molecular target: Serine/threonine-protein kinase PLK1 (Homo sapiens) (UniProt P53350); test: Inhibition of PLK1 (unknown origin) at 1 uM using alpha-casein as substrate preincubated for 5 mins followed by substrate addition measured after 60 mins in presence of [gamma33P]ATP by scintillation counter method relative to control
[8] = molecular target: Mitogen-activated protein kinase kinase kinase 5 (Homo sapiens) (UniProt Q99683); test: Inhibition of ASK1 (unknown origin) at 1 uM using MBP as substrate preincubated for 5 mins followed by substrate addition measured after 60 mins in presence of [gamma33P]ATP by scintillation counter method relative to control
[9] = molecular target: Casein kinase I isoform delta (Homo sapiens) (UniProt P48730); test: Inhibition of CK1delta (unknown origin) at 1 uM using CK1tide as substrate preincubated for 5 mins followed by substrate addition measured after 20 mins in presence of [gamma33P]ATP by scintillation counter method relative to control
Casein kinase I isoform delta (Homo sapiens), sequence (P48730 whole entry, looked up, canonical isoform): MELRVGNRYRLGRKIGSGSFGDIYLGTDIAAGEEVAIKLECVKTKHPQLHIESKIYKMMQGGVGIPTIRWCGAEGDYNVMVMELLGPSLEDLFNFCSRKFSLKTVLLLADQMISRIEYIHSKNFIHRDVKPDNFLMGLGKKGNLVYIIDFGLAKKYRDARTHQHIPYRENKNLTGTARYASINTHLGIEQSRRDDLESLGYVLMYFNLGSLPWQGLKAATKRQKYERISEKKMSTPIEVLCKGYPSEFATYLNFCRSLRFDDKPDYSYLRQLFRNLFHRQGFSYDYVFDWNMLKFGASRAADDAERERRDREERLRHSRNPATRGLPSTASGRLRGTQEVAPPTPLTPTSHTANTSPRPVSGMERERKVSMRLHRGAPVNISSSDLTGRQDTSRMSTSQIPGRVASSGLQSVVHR

Homo sapiens = species on record: Homo sapiens; test: Inhibition of PKA (unknown origin) at 1 uM using PKA peptide as substrate preincubated for 5 mins followed by substrate addition measured after 10 mins in presence of [gamma33P]ATP by scintillation counter method relative to control
[10] = molecular target: Rho-associated protein kinase 1 (Homo sapiens) (UniProt Q13464); test: Inhibition of ROCK1 (unknown origin) at 1 uM using long S6 peptide as substrate pretreated for 5 mins followed by substrate addition measured after 10 mins in presence of [gamma33P]ATP by scintillation counting method relative to control
[11] = molecular target: Protein kinase C theta type (Homo sapiens) (UniProt Q04759); test: Inhibition of PKCtheta (unknown origin) at 1 uM using MBP as substrate preincubated for 5 mins followed by substrate addition measured after 60 mins in presence of [gamma33P]ATP by scintillation counter method relative to control
Protein kinase C theta type (Homo sapiens), sequence (Q04759 whole entry, looked up): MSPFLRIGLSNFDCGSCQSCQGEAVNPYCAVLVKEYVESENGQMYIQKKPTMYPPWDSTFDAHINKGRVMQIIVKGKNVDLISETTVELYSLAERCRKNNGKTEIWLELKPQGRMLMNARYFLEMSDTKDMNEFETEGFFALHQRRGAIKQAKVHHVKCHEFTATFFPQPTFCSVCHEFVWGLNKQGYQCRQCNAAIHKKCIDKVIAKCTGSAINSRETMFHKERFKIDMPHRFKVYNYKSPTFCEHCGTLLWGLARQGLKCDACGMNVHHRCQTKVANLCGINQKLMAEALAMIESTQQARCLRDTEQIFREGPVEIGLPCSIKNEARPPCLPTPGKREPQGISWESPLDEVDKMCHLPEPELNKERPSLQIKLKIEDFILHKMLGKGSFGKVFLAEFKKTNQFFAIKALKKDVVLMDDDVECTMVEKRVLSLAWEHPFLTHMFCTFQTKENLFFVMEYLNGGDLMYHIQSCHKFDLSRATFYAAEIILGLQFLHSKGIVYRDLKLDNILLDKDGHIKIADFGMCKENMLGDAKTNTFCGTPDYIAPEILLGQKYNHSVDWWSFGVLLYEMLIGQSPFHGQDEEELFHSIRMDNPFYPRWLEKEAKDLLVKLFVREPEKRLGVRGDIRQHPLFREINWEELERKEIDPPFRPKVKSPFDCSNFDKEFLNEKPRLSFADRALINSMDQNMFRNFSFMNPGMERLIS

[12] = molecular target: CDC7/DBF4 (Cell division cycle 7-related protein kinase/Activator of S phase kinase) (Homo sapiens) (UniProt Q9UBU7+O00311); test: Inhibition of CDC7/Dbf4 (unknown origin) at 1 uM using His-tagged MCM2 as substrate preincubated for 5 mins followed by substrate addition measured after 60 mins in presence of [gamma33P]ATP by scintillation counter method relative to control; type: protein-complex assay
[13] = molecular target: RAC-alpha serine/threonine-protein kinase (Homo sapiens) (UniProt P31749); test: Inhibition of Akt1 (unknown origin) at <1 uM using AKT1 substrate pretreated for 5 mins followed by substrate addition after 20 mins in presence of [gamma33P]ATP by scintillation counter method
[14] = molecular target: Aurora kinase B (Homo sapiens) (UniProt Q96GD4); test: Inhibition of Aurora B (unknown origin) at <1 uM using aurora peptide as substrate preincubated for 5 mins followed by substrate addition measured after 60 mins in presence of [gamma33P]ATP by scintillation counter method
Aurora kinase B (Homo sapiens), sequence (Q96GD4 whole entry): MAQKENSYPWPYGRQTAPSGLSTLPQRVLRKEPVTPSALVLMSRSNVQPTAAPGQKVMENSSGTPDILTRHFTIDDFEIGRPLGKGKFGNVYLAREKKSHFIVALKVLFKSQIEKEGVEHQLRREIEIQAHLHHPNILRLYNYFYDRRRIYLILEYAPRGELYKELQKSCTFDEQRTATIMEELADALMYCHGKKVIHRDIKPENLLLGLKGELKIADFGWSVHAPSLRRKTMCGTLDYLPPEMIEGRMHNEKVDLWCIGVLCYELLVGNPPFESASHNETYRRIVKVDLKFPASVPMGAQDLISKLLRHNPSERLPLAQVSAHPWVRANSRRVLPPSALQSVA

[15] = molecular target: Dual specificity mitogen-activated protein kinase kinase 1 (Homo sapiens) (UniProt Q02750); test: Inhibition of MEK1 (unknown origin) at <1 uM using GST-ERK1 as substrate preincubated for 5 mins followed by substrate addition measured after 20 mins in presence of [gamma33P]ATP by scintillation counter method
Dual specificity mitogen-activated protein kinase kinase 1 (Homo sapiens), sequence (Q02750 whole entry): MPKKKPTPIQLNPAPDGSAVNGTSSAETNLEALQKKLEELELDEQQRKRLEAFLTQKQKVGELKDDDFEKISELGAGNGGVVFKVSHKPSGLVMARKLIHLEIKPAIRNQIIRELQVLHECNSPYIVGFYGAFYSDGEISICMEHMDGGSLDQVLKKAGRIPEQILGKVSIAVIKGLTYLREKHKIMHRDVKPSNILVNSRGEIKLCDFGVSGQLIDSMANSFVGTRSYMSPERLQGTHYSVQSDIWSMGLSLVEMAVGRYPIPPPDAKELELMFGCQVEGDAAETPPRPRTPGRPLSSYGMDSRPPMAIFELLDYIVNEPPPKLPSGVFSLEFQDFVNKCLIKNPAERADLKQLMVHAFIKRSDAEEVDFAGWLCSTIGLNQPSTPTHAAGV

[16] = molecular target: MAP kinase-activated protein kinase 2 (Homo sapiens) (UniProt P49137); test: Inhibition of MAPKAPK2 (unknown origin) at <1 uM using KKLNRTLSVA-NH2 as substrate preincubated for 5 mins followed by substrate addition measured after 10 mins in presence of [gamma33P]ATP by scintillation counter method
MAP kinase-activated protein kinase 2 (Homo sapiens), sequence (P49137 whole entry, looked up): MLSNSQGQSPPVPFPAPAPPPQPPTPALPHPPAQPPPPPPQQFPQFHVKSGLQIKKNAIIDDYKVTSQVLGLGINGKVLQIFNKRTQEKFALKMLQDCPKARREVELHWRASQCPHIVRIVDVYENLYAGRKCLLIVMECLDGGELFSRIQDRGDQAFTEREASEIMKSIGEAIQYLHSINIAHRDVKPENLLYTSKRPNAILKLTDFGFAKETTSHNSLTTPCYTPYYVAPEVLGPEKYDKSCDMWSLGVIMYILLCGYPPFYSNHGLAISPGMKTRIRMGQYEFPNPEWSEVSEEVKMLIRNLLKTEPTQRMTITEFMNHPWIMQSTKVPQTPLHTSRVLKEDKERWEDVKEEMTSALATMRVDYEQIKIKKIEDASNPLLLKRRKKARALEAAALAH

[17] = molecular target: Serine/threonine-protein kinase Chk1 (Homo sapiens) (UniProt O14757); test: Inhibition of CHK1 (unknown origin) at <1 uM using CHKtide as substrate preincubated for 5 mins followed by substrate addition measured after 10 mins in presence of [gamma33P]ATP by scintillation counter method
[18] = molecular target: Vascular endothelial growth factor receptor 2 (Homo sapiens) (UniProt P35968); test: Inhibition of VEGFR2 (unknown origin) at <1 uM using biotinylated poly[Glu:Tyr] (4:1) as substrate pretreated for 5 mins followed by substrate addition measured after 10 mins by Alphascreen assay
[19] = molecular target: Ephrin type-A receptor 5 (Homo sapiens) (UniProt P54756); test: Inhibition of EphA5 (unknown origin) at <1 uM using biotinylated poly[Glu:Tyr] (4:1) as substrate pretreated for 5 mins followed by substrate addition measured after 10 mins by Alphascreen assay
Ephrin type-A receptor 5 (Homo sapiens), sequence (P54756 whole entry): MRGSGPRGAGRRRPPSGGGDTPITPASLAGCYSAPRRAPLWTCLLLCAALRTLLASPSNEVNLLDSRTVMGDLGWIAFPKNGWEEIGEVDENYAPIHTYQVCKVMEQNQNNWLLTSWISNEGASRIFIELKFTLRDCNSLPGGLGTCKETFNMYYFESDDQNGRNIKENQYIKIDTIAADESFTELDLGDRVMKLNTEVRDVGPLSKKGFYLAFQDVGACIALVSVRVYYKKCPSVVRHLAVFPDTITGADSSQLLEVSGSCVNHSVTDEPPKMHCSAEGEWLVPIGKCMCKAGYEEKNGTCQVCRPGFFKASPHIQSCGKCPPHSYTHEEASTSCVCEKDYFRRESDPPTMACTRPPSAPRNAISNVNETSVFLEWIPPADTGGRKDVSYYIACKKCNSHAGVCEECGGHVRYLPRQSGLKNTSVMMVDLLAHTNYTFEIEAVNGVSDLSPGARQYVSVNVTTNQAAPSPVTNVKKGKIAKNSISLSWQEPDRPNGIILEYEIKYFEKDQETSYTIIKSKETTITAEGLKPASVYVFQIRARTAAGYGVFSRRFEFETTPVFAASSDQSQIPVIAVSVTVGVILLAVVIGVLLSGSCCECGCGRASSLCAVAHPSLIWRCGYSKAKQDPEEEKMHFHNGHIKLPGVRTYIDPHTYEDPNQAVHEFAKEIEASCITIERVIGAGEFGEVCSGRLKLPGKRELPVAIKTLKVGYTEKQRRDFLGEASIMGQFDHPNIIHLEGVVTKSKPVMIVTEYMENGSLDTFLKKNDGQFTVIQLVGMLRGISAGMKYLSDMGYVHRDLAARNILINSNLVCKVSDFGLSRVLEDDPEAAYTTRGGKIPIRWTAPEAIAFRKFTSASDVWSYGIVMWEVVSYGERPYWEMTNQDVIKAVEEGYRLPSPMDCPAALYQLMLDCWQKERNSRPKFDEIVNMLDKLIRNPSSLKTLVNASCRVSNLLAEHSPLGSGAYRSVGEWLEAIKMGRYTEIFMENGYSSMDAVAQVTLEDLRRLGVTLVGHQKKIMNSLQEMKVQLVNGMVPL

[20] = molecular target: Hepatocyte growth factor receptor (Homo sapiens) (UniProt P08581); test: Inhibition of cMET (unknown origin) at <1 uM
[21] = molecular target: Tyrosine-protein kinase JAK1 (Homo sapiens) (UniProt P23458); test: Inhibition of JAK1 (unknown origin) at <1 uM using biotinylated poly[Glu:Tyr] (4:1) as substrate pretreated for 5 mins followed by substrate addition measured after 10 mins by Alphascreen assay
[22] = molecular target: Focal adhesion kinase 1 (Homo sapiens) (UniProt Q05397); test: Inhibition of FAK (unknown origin) at <1 uM using biotinylated poly[Glu:Tyr] (4:1) as substrate pretreated for 5 mins followed by substrate addition measured after 20 mins by Alphascreen assay
[23] = molecular target: Insulin receptor (Homo sapiens) (UniProt P06213); test: Inhibition of IRK (unknown origin) at <1 uM using biotinylated poly[Glu:Tyr] (4:1) as substrate pretreated for 5 mins followed by substrate addition measured after 60 mins by Alphascreen assay
[24] = molecular target: Phosphatidylinositol 4,5-bisphosphate 3-kinase catalytic subunit alpha isoform (Homo sapiens) (UniProt P42336); test: Inhibition of PI3Kalpha (unknown origin) at <1 uM
[25] = molecular target: Mitogen-activated protein kinase 3 (Homo sapiens) (UniProt P27361); test: Inhibition of ERK1 (unknown origin) at <1 uM using MBP as substrate preincubated for 5 mins followed by substrate addition measured after 60 mins in presence of [gamma33P]ATP by scintillation counter method
[26] = molecular target: Mitogen-activated protein kinase 14 (Homo sapiens) (UniProt Q16539); test: Inhibition of p38alpha (unknown origin) at <1 uM using MBP as substrate preincubated for 5 mins followed by substrate addition measured after 60 mins in presence of [gamma32P]ATP by scintillation counter method
[27] = molecular target: High affinity nerve growth factor receptor (Homo sapiens) (UniProt P04629); test: Inhibition of TrkA (unknown origin) at <1 uM
CDK8/Cyclin C [28] = molecular target: T3, CDK8/Cyclin C (Homo sapiens, UniProt P49336); test: Inhibition of kinase tracer-236 binding to GST-tagged CDK8/CyclinC (unknown origin) after 60 mins by TR-FRET assay; type: protein-complex assay
T3 sequence (P49336 whole entry): as the sequence (P49336 whole entry) above
T3 sequence (P24863 whole entry, further chain): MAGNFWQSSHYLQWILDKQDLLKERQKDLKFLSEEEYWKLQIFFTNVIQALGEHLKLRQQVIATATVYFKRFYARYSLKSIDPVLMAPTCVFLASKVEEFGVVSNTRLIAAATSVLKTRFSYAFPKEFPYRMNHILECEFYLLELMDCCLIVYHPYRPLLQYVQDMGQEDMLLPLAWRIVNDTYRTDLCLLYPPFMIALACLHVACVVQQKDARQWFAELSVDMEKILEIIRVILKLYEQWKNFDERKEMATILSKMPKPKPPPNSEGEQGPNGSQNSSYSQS

[29] = molecular target: Cyclin-C/Cyclin-dependent kinase 19 (Homo sapiens, UniProt Q9BWU1); test: Inhibition of kinase tracer-236 binding to GST-tagged CDK19/CyclinC (unknown origin) after 60 mins by TR-FRET assay; type: protein-complex assay
[30] = molecular target: T2, Cyclin-dependent kinase 9; test: Inhibition of CDK9 (unknown origin)
[31] = molecular target: Proto-oncogene tyrosine-protein kinase Src (Homo sapiens) (UniProt P12931); test: Inhibition of SRC (unknown origin) at <1 uM using biotinylated poly[Glu:Tyr] (4:1) as substrate pretreated for 5 mins followed by substrate addition measured after 10 mins by Alphascreen assay
[32] = molecular target: CDK8/Cyclin C (Homo sapiens) (UniProt P49336+P24863); details: 1 uM
Description: Inhibition of kinase tracer-236 binding to GST-tagged CDK8/CyclinC (unknown origin) at 1 uM after 60 mins by TR-FRET assay relative to control

[33] = molecular target: Cyclin-C/Cyclin-dependent kinase 19 (Homo sapiens) (UniProt Q9BWU1+P24863); details: 1 uM
Description: Inhibition of kinase tracer-236 binding to GST-tagged CDK19/CyclinC (unknown origin) at 1 uM after 60 mins by TR-FRET assay relative to control

[34] = molecular target: T1, Cyclin-dependent kinase 8; test: Inhibition of CDK8 in human SW480 cells assessed as decrease in STAT1 phosphorylation at Ser727 after 2 hrs by Western blot method
CDK8/Cyclin C [35] = molecular target: T3, CDK8/Cyclin C; test: Inhibition of full length recombinant human His-tagged CDK8/Cyclin C expressed in baculovirus expression system by LanthaScreen assay
[36] = molecular target: T1, Cyclin-dependent kinase 8; test: Inhibition of CDK8 induced beta-catenin transcriptional activity in human HCT116 cells by luciferase reporter gene assay; type: cell-based

SMILES: CN(C)[C@H]1C[C@@]23CC[C@@]4(O2)C(=CC[C@]2(C)[C@@H](c5ccc6ccncc6c5)CC[C@H]24)C=C3[C@@H](O)[C@@H]1O
- Activity (SET-2): 71%

SMILES: NC(=O)C[C@H]1CCc2sc3ncnc(O[C@H]4CC[C@H](N5CCOCC5)CC4)c3c21
- IC50 [1]: 22 nM

SMILES: Brc1c(Br)c2c3c(nc(N4CCNCC4)n3CCC2)c1Br
- inhibition [2]: 96%

SMILES: CSc1sc(C(N)=O)c2c1-c1sncc1CC2
- microsomal CLint at 1 µM [3]: 137 µL/min/mg
- inhibition [4]: 95%
- inhibition [5]: 105%
- inhibition [6]: 64%
- inhibition [7]: 62%
- inhibition [8]: 60%
- inhibition [9]: 94%
- inhibition (Homo sapiens): 62%
- inhibition [10]: 81%
- inhibition [11]: 77%
- inhibition [12]: 91%
- inhibition [13]: inactive
- inhibition [14]: inactive
- inhibition [15]: inactive
- inhibition [16]: inactive
- inhibition [17]: inactive
- inhibition [18]: inactive
- inhibition [19]: inactive
- inhibition [20]: inactive
- inhibition [21]: inactive
- inhibition [22]: inactive
- inhibition [23]: inactive
- inhibition [24]: inactive
- inhibition [25]: inactive
- inhibition [26]: inactive
- inhibition [27]: inactive
- IC50 (CDK8/Cyclin C [28]): 0.65 nM
- IC50 [29]: 1.3 to 1.7 nM
- IC50 [30]: 4 nM
- inhibition [31]: inactive
- inhibition [32]: 99%
- inhibition [33]: 97%
- EC50 [34]: 8.9 nM

SMILES: c1cc2cc(c1)-c1cnc3ccc(nn13)NCCCCCO2
- IC50 (CDK8/Cyclin C [35]): 31 nM
- EC50 [36]: 337 nM
